Test results from PMC4211885 (PLoS ONE, 2014).
Entries after “also recorded” stand apart in the source; their conditions may differ. Read-outs that look alike come from different tables or passages of the source.

Key:
OA/TAMac receptor [1] = biological target: T1, OA/TAMac receptor (Macrobrachium rosenbergii, UniProt D9U2B9); test: Agonist-evoked direct-current (ID) in Xenopus oocytes injected with OA/TAMac cRNA, two-electrode voltage clamp; format: cell-based; settings: for Amplitude of agonist evoked ID relative to octopamine-evoked current: all agonists at 50 µM, within single oocytes
T1 sequence (D9U2B9 entry or part of it): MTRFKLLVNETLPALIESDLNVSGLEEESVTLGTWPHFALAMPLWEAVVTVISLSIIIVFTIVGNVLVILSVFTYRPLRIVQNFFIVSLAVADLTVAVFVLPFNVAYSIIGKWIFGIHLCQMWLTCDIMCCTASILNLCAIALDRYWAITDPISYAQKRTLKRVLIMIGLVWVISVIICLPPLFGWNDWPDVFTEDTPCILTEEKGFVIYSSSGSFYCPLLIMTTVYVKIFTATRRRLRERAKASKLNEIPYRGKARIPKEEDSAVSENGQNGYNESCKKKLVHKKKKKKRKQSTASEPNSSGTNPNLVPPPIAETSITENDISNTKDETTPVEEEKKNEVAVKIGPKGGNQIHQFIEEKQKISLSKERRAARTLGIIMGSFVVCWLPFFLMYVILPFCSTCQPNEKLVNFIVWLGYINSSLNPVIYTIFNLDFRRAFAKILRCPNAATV
Source text: We used Xenopus oocytes to express the prawn OA/TAMac receptor by injection of synthetic cRNA. The injection of foreign RNA into Xenopus oocytes typically induces the expression of multiple native chloride and potassium channels. Ligand evoked currents resulting from modulation of these channels have been used extensively in the characterization of heterologously expressed GPCRs. Oocytes are typically voltage clamped at a constant membrane potential around −60 mV and deviations in holding potential are measured. We refer to currents measured in this way as direct-currents (ID) (after) in order to distinguish them from the voltage-evoked transient current (ICl-T) described later.
Both flow rate and pulse duration were precisely controlled and comparisons were made relative to currents within single oocytes.
To characterize the dose dependence of ID, series of single transmitters were applied to different individual oocytes injected with OA/TAMac. Oocytes were voltage clamped at −60 mV and tyramine, (+/−)-octopamine, or dopamine were applied using 30 second perfusion-switched applications (see methods for more details).
(§1) Recordings were performed 1–3 days post-injection at room temperature (20–22°C). Currents were recorded under two-electrode voltage clamp using an Axoclamp 900a amplifier (Molecular Devices LLC, CA USA). A digidata 1440a analog to digital converter was used in conjunction with pCLAMP 10 software (Molecular Devices) for data acquisition and to generate voltage commands. For each step protocol or chemical application data were typically sampled at 5 KHz and filtered digitally at 1 KHz. For the duration of each experiment the current was also continuously sampled at 1 kHz using a separate minidigi 1A digitizer (Molecular Devices). Glass microelectrodes were pulled from filamented 1.2 mm thin wall borosilicate glass (World Precision Instruments, Sarasota, FL) using a Sutter Instruments P-97 puller. They were filled with 3 M KCl and had resistances of 0.8–2.0 MΩ. A silver chloride pellet immersed in 3 M KCl and connected to the bath via a 3% agar bridge made with 3 M KCl was used as the reference electrode.
Oocytes were continuously perfused at 1.5 mL/min either with ND 96 or test compounds dissolved in ND 96. Two types of application were used over the course of this study, a perfusion-switch or a focal application. In all cases solutions were delivered through a gravity fed system and switched using a computer controlled bank of pinch valves. Flow rate was regulated with a manual screw-type pinch valve.
For focal application a triple barrel pipette with three parallel independently switched channels was positioned about 1 mm from the surface of the oocyte, up-stream of a cross flow, at an approximate angle of 45 degrees (schematic shown in Fig. S8). Drugs were focally applied during continuous perfusion with ND 96.
(§2) In experiments where more than three drugs or concentrations were tested a precisely controlled 30 s perfusion-switch was used. Up to eight channels were connected to the bath via an 8-way manifold. There was an approximately 6–7 s delay for solutions to traverse the dead volume between the manifold and the bath.

[2] = system: CFTR conductance (intracellular cAMP); test: cAMP detection by whole oocyte (CFTR) conductance in oocytes co-expressing CFTR and OA/TAMac; format: cell-based, Xenopus laevis; settings: FSK at 50 µM
Source text: It is also unlikely that the effects of tyramine at high concentration result from an increase in cAMP. It is common that octopaminergic GPCRs can couple through the canonical Gαs/cAMP pathway so we used co-expression of the Cystic Fibrosis Trans-membrane Conductance Regulator (CFTR) as a means of testing for increases in cAMP (see methods for more detail) [60]–[63].
As a means of detecting rises in intracellular cAMP levels we tested oocytes co-expressing the CFTR channel and OA/TAMac. Heterologously expressed CFTR can be used as an extremely sensitive assay for intracellular cAMP in Xenopus oocytes. CFTR mediates a chloride-selective leak conductance that is activated by increases in intracellular cAMP [63]. Activity of CFTR can thus be used to indicate whether changes in cAMP correspond with ligand application [60]–[62]. Whole oocyte conductance was monitored using a step protocol and calculated from I/V plots. The command voltage was stepped from the holding potential to various levels (−10 mV to −55 mV in −5 mV increments) for 150 ms. The steady state current during each step was plotted against the command voltage and fit to a line using Clampfit 10 software (Fig. S7A). The slope of the line was taken as the conductance. To minimize the magnitude of the holding current between drug applications, oocytes expressing CFTR were typically held at −20 mV which is close to the typical chloride reversal potential. This was confirmed by the fact that the direct-current evoked by forskolin could appear inward or outward at −20 mV. Oocytes expressing either OA/TAMac alone or OA/TAMac and CFTR typically had resting membrane potentials between −20 mV and −30 mV (mean of −26±5 mV calculated from oocytes in Fig. S7) due to increased expression of endogenous chloride currents.
(A) The measurement of whole oocyte conductance was done by plotting steady state current against the command voltage recorded during a step protocol. It is defined as the slope (I/V) of the linear least squares regression line. In the example shown tyramine (TA) causes no apparent change in whole oocyte conductance. Octopamine (OA) causes a small change compared to the adenylate cyclase activator forskolin (FSK). […] These cumulative data are from 20 OA/TAMac and CFTR-injected oocytes and 6 OA/TAMac -only injected oocytes. Conductance was measured as shown in A. Not all compounds were tested in all oocytes. Each response is treated as an independent sample. Concentrations of OA and TA were at 100 µM or 1000 µM, FSK was at 50 µM. Some points obtained at 3 minutes were grouped with the 4 minute responses. (C) The change in conductance (Δg) occurring within oocytes as determined by the difference between baseline and the indicated time points post-application of compound. […]

OA/TAMac receptor [3] = biological target: T1, OA/TAMac receptor; test: Antagonist block of ID evoked by 50 µM octopamine in OA/TAMac-injected oocytes; format: cell-based
Procedure: as §1, §2

Uninjected oocytes = test: Direct-current response of uninjected oocytes (control); format: cell-based, Xenopus laevis; settings: n = 5
Procedure: We first tested receptor-injected oocytes for the occurrence of a response to biogenic amines. Applications of tyramine, octopamine, or dopamine produced an inward ID, typically ranging between 50 nA and 500 nA, under a constant holding potential of −60 mV. […] The amplitude of tyramine evoked ID at concentrations below 10 µM was greater than octopamine or dopamine within the same oocyte (Figs. 2A and S2). […] Instead it would rise and then begin to decline prior to the removal of agonist (dotted line). However, at high concentrations, above 100 µM, ID appeared to approach a stable plateau (Fig. 2B).
as §1
Supplementary file pone.0111314.s001.tif: Figure S1 Direct-current (ID) responses are specifically evoked by agonists in oocytes injected with OA/TAMac only. […] The trace is representative of an experimental set of 5 oocytes. Additional uninjected oocytes were tested with various experimental sets throughout the course of this study. (B) A typical preliminary test of agonist sensitivity. Injection of OA/TAMac cRNA alone is sufficient to confer sensitivity to OA. […] Applications are approximately 30 seconds in the upper trace. (C) The response of clonidine (CN), synephrine (SN), and OA within a single OA/TAMac injected oocyte. […] All drugs are applied for 30 seconds each as indicated by black rectangles. Agonist evoked currents are measured within oocytes relative to the octopamine response at 50 µM. The comparison is made to OA because the amplitude of the tyramine response becomes small at concentrations above 10 µM. This is due to a mechanistically undefined process not seen with any other agonist we tested. Note that TA is the first compound applied to a naïve oocyte in this example. […] (TIF) Click here for additional data file.

[4] = Solubility limit in ND 96 when preparing test solutions; format: physicochemical; settings: ND 96, from methanol stock
Procedure: Compounds were obtained from Sigma and dissolved in ND96 or calcium free ND 96 (96 mM NaCl, 2 mM KCl, 5 mM MgCl2, 0.1 mM EGTA, and 5 mM HEPES, pH 7.6), unless stated otherwise. […] SQ-22536 was prepared as a 0.1 M stock in water. Yohimbine was dissolved in acidic ND 96 to 1 mM, before being serially diluted at pH 7.6. Forskolin was prepared as a 0.05 M stock in DMSO. Thapsigargin was prepared as a 0.01 M stock in DMSO. (−)-Quinpirol was made as a 0.01 M stock in ND96 and stored in aliquots at −20°C. […] For all antagonists serial dilutions were made in ND 96 containing 50 µM octopamine and applied as a mixture.

[5] = antagonist applied as mixture with 50 µM octopamine, 30 second perfusion-switch, −60 mV, estimated graphically, read-out: IC50 for block of octopamine-evoked ID

Compound: CNCC(O)c1ccc(O)cc1 (racemic) [(+/−)-synephrine]
- Amplitude of agonist evoked ID relative to octopamine-evoked current (OA/TAMac receptor [1]; 30 second perfusion-switch): smaller currents than octopamine or β-PEA

Compound: CCCN1CCC[C@@H]2Cc3n[nH]cc3C[C@H]21 [(−)-quinpirole]
- Amplitude of agonist evoked ID relative to octopamine-evoked current (OA/TAMac receptor [1]; 30 second perfusion-switch): smaller currents than octopamine or β-PEA
- Amplitude of agonist evoked ID relative to octopamine-evoked current (OA/TAMac receptor [1]; 30 second perfusion-switch, listed as quinpirole): produces a response in injected oocytes and not in uninjected oocytes

Compound: Clc1cccc(Cl)c1N=C1NCCN1 [Clonidine]
- Amplitude of agonist evoked ID relative to octopamine-evoked current (OA/TAMac receptor [1]; 30 second perfusion-switch): no visible response

Compound: C=C[C@@]1(C)CC(=O)[C@]2(O)[C@@]3(C)[C@@H](O)CCC(C)(C)[C@@H]3[C@H](O)[C@H](OC(C)=O)[C@@]2(C)O1 [FSK, forskolin]
- Evoked whole oocyte conductance [2]: significantly larger conductance than baseline or TA

Compound: CN1CCc2cc(Cl)c(O)cc2[C@@H](c2ccccc2)C1 [SCH-23390]
- IC50 (OA/TAMac receptor [3]; [5]): ~9.6 µM

Compound: Nc1ncnc2c1ncn2C1CCCO1 (stereo not drawn) [SQ-22536]
- Effect of adenylate cyclase inhibitor on amine evoked ID (OA/TAMac receptor [1]; tyramine n = 3, octopamine n = 6): no apparent effect; also recorded: no obvious effect

Compound: NCCc1ccc(O)c(O)c1 [dopamine]
- ID response amplitude (mean ± s.d.) (OA/TAMac receptor [1]; 10 µM, 10 second focal application, −60 mV, OA/TAMac and CFTR co-injected, n = 11 oocytes): 46±31 nA
- EC50 (OA/TAMac receptor [1]; 30 second perfusion-switch, voltage clamped at −60 mV, approximate, estimated graphically from plot, read-out: EC50 of transmitter evoked direct-current (ID), normalized I/Imax): ~63 µM
- Concentration at which evoked inward currents became visible/apparent (OA/TAMac receptor [1]; 30 second perfusion-switched applications, −60 mV): around 1 µM
- Spearman rank-order correlation (rS) between rise rate and peak amplitude of evoked ID (OA/TAMac receptor [1]; all responses of the concentration series of Figure 3C): 0.97
- Response of uninjected oocytes (Uninjected oocytes): no response
- Response of uninjected oocytes (Uninjected oocytes; listed as DA): do not respond

Compound: NC1=NCC2c3ccccc3Cc3ccccc3N12 (stereo not drawn) [epinastine]
- IC50 (OA/TAMac receptor [3]; [5]): ~3.7 µM

Compound: O=C(CCCN1CCC(O)(c2ccc(Cl)cc2)CC1)c1ccc(F)cc1 [haloperidol]
- Limit of solubility [4]: could not be tested at 100 µM because of its limit of solubility

Compound: NCCc1c[nH]cn1 [histamine]
- Amplitude of agonist evoked ID relative to octopamine-evoked current (OA/TAMac receptor [1]; 30 second perfusion-switch): no response or minimal response
- Amplitude of agonist evoked ID relative to octopamine-evoked current (OA/TAMac receptor [1]; 30 second perfusion-switch, listed as Histamine): minimal response

Compound: Cc1ccc(N(CC2=NCCN2)c2cccc(O)c2)cc1 [phentolamine]
- IC50 (OA/TAMac receptor [3]; [5]): ~0.98 µM

Compound: C/C=C(/C)C(=O)O[C@H]1C(C)=C2[C@H]([C@@H]1OC(=O)CCCCCCC)[C@@](C)(OC(C)=O)C[C@H](OC(=O)CCC)[C@@]1(O)[C@H]2OC(=O)[C@@]1(C)O [thapsigargin]
- Effect of pre-incubation on tyramine-induced ID waveform (OA/TAMac receptor [1]; 1.7 µM in calcium-free ND 96 for three hours, n = 2): no apparent effect on the tyramine induced plateau

Compound: COC(=O)[C@@H]1[C@H]2C[C@H]3c4[nH]c5ccccc5c4CCN3C[C@@H]2CC[C@@H]1O [yohimbine]
- IC50 (OA/TAMac receptor [3]): ~0.48 µM

Compound: NCCc1ccccc1 [β-phenylethylamine]
- Amplitude of agonist evoked ID relative to octopamine-evoked current (OA/TAMac receptor [1]; 30 second perfusion-switch): comparable or greater amplitude than octopamine
